Data as given in US20250000874A1, “BACTERIAL METABOLITES AND THEIR USE IN REDUCING INFLAMMATION” (LOYOLA UNIVERSITY OF CHICAGO, priority 2023, published 2025).
“Also recorded” adds a separate entry of the source.

Columns and labels:
dry eye disease model = assay: Murine experimental dry eye (DED) model, ICES; type: in vivo, mouse
From the text: FIG. 12. Corneal Florescein Staining with JE-treated Experimental Dry Eye. Mean corneal staining score with JE/control topical treatment (4 times/day) starting 3 weeks after housing in ICES. Group 1: Normal control (non DED); group 2: Dry Eye treated with JE (JE+DED); Group 3: Dry Eye treated with vehicle (control DED). P value: *: <0.05. One of two experiments is shown.
FIG. 25. Pro-Inflammatory IL-6 Cytokine Expression in Corneal Tissues Isolated from Control, Vehicle Control, and Treatment Groups. Corneal samples from the three groups were isolated, stabilized in RNA later, and stored at-80. Corneal samples were homogenized, and RNA was purified using RNAeasy mini-kit. A total of 0.5 μg-1 μg RNA was yielded. RT-qPCR was performed. Values were normalized to GAPDH control, and fold induction was measured as 2-ΔΔCT. One of two experiments is shown.
We further tested if JE reduced corneal tissue damage in a murine DED model. Thus, normal C57BL/6J mice were maintained in relative humidity 60% to 80%, no airflow at 21-23° C. as normal control (Group 1). The experimental dry eye was induced by using an Intelligently Controlled Environmental System (ICES). Dry eye mice (Group 2 and Group 3) were housed in ICES with relative humidity at 13+4%, airflow of 2.2+0.2 m/s, and temperature of 21-23° for 3 weeks. Group 2 mice were treated with 10 μL JE at 50 μM 0.35% (v/v) DMSO in PBS and group 3 (vehicle control) were treated with 10 μL of 0.35% (v/v) DMSO in PBS, 4 time/day topically for 14 days. Corneal fluorescein staining was evaluated at week 0, 3 and 5. The stained area was assessed according to a standardized grading system ranging from 0 to 4, with the corneal surface divided into five regions. Then the total scores from the five regions were analyzed. […] The data strongly support that JE (3,3-Difluoro-5-alpha-androstan-17-beta-yl acetate) can be used as therapeutic agent for non-infectious inflammatory diseases. […]
This pattern of staining points to significant corneal damage and inflammation. […] Next, the IL-6 cytokine expression was measured in corneal samples using RT-qPCR. […]

macrophages = assay: NC on other TLR pathways, macrophages (Example 7); type: cell-based; settings: PAM3CSK4, Flagellin, Imiquimod, ODN2006; various concentrations
Description: Once ready, macrophages were then incubated with NC at a concentration of 50 uM overnight. The following day they were treated with P(I:C) at 50 ug/mL, 100 ug/mL, or 200 ug/mL, with LPS at 1 ng/ml or 10 ng/ml, or FSL at a concentration of 20 ng/ml or 50 ng/mL. Samples were treated for 4 hours and then Supernatant was then collected and the concentration of TNFα was then determined via the commercially available ELISA MAX Deluxe kit (Biolegend), with measurements reported in pg/mL.
Further investigation of NC's impact on TLR signaling involved treating BMDMs with the TLR 4 agonist LPS. Following overnight treatment with NC cells were treated with LPS at a concentration of 1 ng/ml and 10 ng/ml. After 4 hours supernatant was collected and concentration of TNFα was measured via ELISA. […] Additionally, we explored NCs effects on other TLR agonists. […] We investigated NCs effects on various other TLR pathways including: ½ (PAM3CSK4), TLR 5 (Flagellin), TLR 7 (Imiquimod), and TLR 9 (ODN2006).

[1] = test system: Human corneal epithelial cells; assay: NC on IL-6 release in HCECs; type: cell-based; settings: 50 μM NC 18 hours, 6-8 hours
Description: FIG. 30. NC on IL-6 Release in HCECs. Human corneal epithelial cells were plated at a uniform density of 0.2×10^6 cells/mL in 24 well plates. These cells were allowed to adhere for 6-8 hours. They were then treated 18 hours with 50tM of metabolite NC before being stimulated with 1 tg/mL of PA-Flagellin or 50 tg/mL Poly I:C. Supernatant was collected between 6-8 hours after addition of TLR agonist and centrifuged at 1250 rpms for 5 minutes to remove any debris. IL-6 in the supernatant was then quantified using a sandwich ELISA for human IL-6 with a standard of known IL-6 concentration.
Human corneal epithelial cells (HCECs) are a cell type used for models of ocular inflammation. To determine the specificity of HCEC TLR signaling, HCECs were stimulated with various TLR agonists. In this experimental model, HCECs only release IL-6 in response to TLR3 and TLR5 agonists (Poly I:C and Fla, respectively) in vitro (FIG. 29). Therefore, only Poly I:C and Fla were used for HCEC stimulation in subsequent experiments.
To determine if NC can mitigate TLR-related inflammation, HCECs were plated at a uniform density, incubated with 50 μM metabolite NC for 18 hours, and stimulated with flagellin or Poly I:C. After 6-8 hours, supernatant was collected and IL-6 was quantified. […] FIG. 30.

SMILES | corneal fluorescein staining score (dry eye disease model; 10 μL JE 50 μM topically 4 times/day for 14 days after 3 weeks in ICES, vs vehicle control, day 35) | IL-6 expression in corneal samples (RT-qPCR) (dry eye disease model; JE eye drops four times a day for 14 days) | surface area of corneal damage (dry eye disease model; JE eye drops four times a day for 14 days, relative to vehicle control) | cytokine production, other TLR pathways (macrophages) | release of IL-6 in response to Poly I:C ([1]; Poly I:C) | release of IL-6 in response to Fla ([1]; flagellin)
CC(=O)O[C@@H]1CC[C@H]2[C@H]3CC[C@H]4CC(F)(F)CC[C@]4(C)[C@H]3CC[C@]12C [JE, 3,3-Difluoro-5-alpha-androstan-17-beta-yl acetate] | significantly reduced | decreased; also recorded: did not return to the baseline | decrease |  |  | 
CCCCCCCCCCCCCCCC(=O)N[C@@H](C(=O)O)[C@H](C)O [NC, N-Palmitoyl-D-Threonine] |  |  |  | did not exhibit any significant inhibitory effects | does not significantly reduce; also recorded: modestly reduced | does not significantly reduce
